Experimental data from US8951527B2, “Radioprotectants targeting thrombospondin-1 and CD47” (The United States of America, as represented by the …, priority 2008, dated 2015).

Columns and labels:
C57BL/6 wild type mice [1] = assay: Hindlimb irradiation (25 Gy), skin reaction / tissue necrosis grading and histology; assay type: in vivo, mouse; conditions: for skin reaction / tissue damage of irradiated hindlimb: 10 μM in 750 μl PBS local-regional
Method: FIG. 16. CD47 suppression using an antisense morpholino minimizes tissue damage from radiation injury. Age and sex matched C57BL16 wild type mice underwent a one-time treatment of the right hindlimb with either a murine specific CD47 morpholino oligonucleotide (10 μM in 750 μl PBS) or 750 μl of PBS injected local-regionally to the muscle and soft tissues. […] At the end of 8 weeks, there was a considerable amount of alopecia, dry desquamation and early signs of fibrotic contractures within the irradiated hind limbs of mice receiving only PBS. […] The tissue necrosis grading scores for 8 animals are presented as mean±SD (FIG. 16B) and show a similar trend throughout the 8-week observation period.
Skin reaction: Skin reaction following hind limb irradiation was quantified every week following treatment for 8 weeks using a previously described grading system (Flanders et al., Am J Pathol 163:2247-2257, 2003). The grading system consisted of 5 categories: normal, hair loss, erythema, dry desquamation and moist desquamation/ulceration.
Irradiation of mice: Age and sex matched wild type mice underwent local irradiation to the right hindlimb as described in Example 1. Forty-eight hours prior to irradiation, animals received the CD47 morpholino (SEQ ID NO: 4), a control morpholino (SEQ ID NO: 5) (both at 10 μM in […] PBS via intramuscular injection), vehicle, or no treatment to the hind limb. Under 1% isoflurane inhalation anesthesia, the animals were placed in customized Lucite jigs that allow for immobilization and selective irradiation of the right hindlimb. A single radiation dose of 25 Gy was delivered by a Therapax® DXT300 X-ray irradiator (Pantak, Inc., East Haven, Conn.) using 2.0-mm A1 filtration (300 kVp) at a dose rate of 2.53 Gy/min. Care was taken to avoid irradiation of other body parts by using lead shields specifically designed as a part of the jigs. After irradiation, the animals were placed in cages as indicated above and observed weekly. Skin reaction after hind limb irradiation was quantified every week after treatment for 8 weeks using a previously described grading system (Flanders et al., Am J. Pathol 163:2247-2257, 2003). Briefly, tissue necrosis grading system consists of 5 categories: normal, hair loss, erythema, dry desquamation, and moist desquamation/ulceration.
Age and sex matched C57BL16 wild type mice underwent a one-time treatment of the right hindlimb with the CD47 antisense morpholino oligonucleotide (10 μM in 750 μl PBS), a mismatched control morpholino, or vehicle (PBS) injected local-regionally to the muscle and soft tissues.

C57BL/6 wild type mice [2] = assay: Tissue apoptosis (TUNEL) in irradiated hindlimb muscle and bone marrow; assay type: in vivo, mouse; conditions: morpholino 48 hours before 25 Gy, 24 hours post-radiation
Method: FIG. 17. Therapeutic suppression of CD47 prevents radiation-induced apoptosis in muscle and bone marrow. The presence of apoptosis was detected by the TUNEL method as brown nuclear staining. Non-irradiated control hindlimbs (upper panels) and hindlimbs irradiated for a total of 25 Gy all from age and sex matched C57BL/6 wild type mice were prepared for paraffin-embedded tissue sections 24 hours post-radiation and were examined for the presence of apoptotic nuclei. Mice hindlimbs injected with the CD47 morpholino (bottom panels) 48 hours prior to radiation were also prepared in the same manner 24 hours post-radiation. Apoptosis is inferred by intranuclear staining of muscle and bone marrow cells. Images were acquired using a 20× objective.
Tissue apoptosis: The ApopTag in situ detection kit (Chemicon, Millipore, Mass.) was employed following the manufacturer's recommendations In brief, sections undergo deparaffinization, rehydration and washing, followed by treatment with 20 μg/ml of proteinase K for 15 minutes at room temperature and repeat washing. Endogenous peroxidase activity was quenched with 3% H2O2 in PBS for 5 minutes. The 3′-hydroxy DNA strand breaks were enzymatically labeled with digoxygenin nucleotide via TdT and incubated for 1 hour at 37° C., and the reaction terminated with a stop buffer. […]

In the case of “CGTCACAGGCAGGACCCACTGCCCA (all phosphorodiamidate morpholino (PMO)) [CD47 morpholino, CD47 targeting morpholino oligonucleotide]”, the “skin reaction / tissue damage of irradiated hindlimb” value (C57BL/6 wild type mice [1]; 48 hours before 25 Gy, 8 weeks) is reported as “little to no alopecia, ulceration, or desquamation”, the “skin reaction / tissue damage of irradiated hindlimb” value (C57BL/6 wild type mice [1]; 48 hours before 25 Gy, 8 weeks, listed as CD47 targeting morpholino) is reported as “minimal to no alopecia, ulceration, and desquamation” and the “H&E of treated hindlimb skeletal muscle” value (C57BL/6 wild type mice [1]; 25 Gy, results not shown) is reported as “muscle cell survival and hypertrophy”. The “hindlimb contracture due to fibrosis” value (C57BL/6 wild type mice [1]; 48 hours before 25 Gy, 8 weeks) was “minimal contracture due to fibrosis”, the “apoptosis (TUNEL) in bone marrow” value (C57BL/6 wild type mice [2]) was “tissue protection extended to the bone marrow compartment” and the “apoptosis (TUNEL) in skeletal muscle” value (C57BL/6 wild type mice [2]) was “minimum cell death (apoptosis)”.
